Reference: DBAASP
Converted amounts (≈) assume the structure as drawn.

Experiments:
Assay in all cases: ≥ marks a high value that may be exact or a test limit, other limits are often not marked, values filed in µg/mL are converted to µM
[1] = tested on: Pseudomonas aeruginosa ATCC 27853
[2] = tested on: Staphylococcus aureus ATCC 2592
[3] = tested on: Pseudomonas aeruginosa 1411
[4] = tested on: Pseudomonas aeruginosa 1413
Staphylococcus aureus = tested on: Staphylococcus aureus
[5] = tested on: Escherichia coli ATCC 25922
[6] = tested on: Staphylococcus epidermidis
Escherichia coli 1342 = tested on: Escherichia coli 1342
[7] = tested on: Cutibacterium acnes ATCC 11827
Escherichia coli 1334 = tested on: Escherichia coli 1334
Candida glabrata 0902 = tested on: Candida glabrata 0902
[8] = tested on: Pseudomonas aeruginosa 1412
[9] = tested on: Staphylococcus aureus 1349
[10] = tested on: Candida albicans ATCC 2002
[11] = tested on: Staphylococcus aureus 1303
[12] = tested on: Staphylococcus aureus CGMCC 1.0363
[13] = tested on: Vibrio alginolyticus CGMCC 1.1833
[14] = tested on: Vibrio parahaemolyticus CGMCC 1.1615
[15] = tested on: Corynebacterium glutamicum CGMCC 1.1886
[16] = tested on: Aeromonas hydrophila CGMCC 1.0927
[17] = tested on: Pseudomonas aeruginosa M11005
[18] = tested on: Enterococcus faecalis ATCC 51299
[19] = tested on: Enterococcus faecalis M4899
[20] = tested on: Staphylococcus aureus ATCC 25923
[21] = tested on: Enterococcus faecium PZAP 95
[22] = tested on: Klebsiella pneumoniae M5825
[23] = tested on: Staphylococcus aureus M6784
Escherichia coli M9884 = tested on: Escherichia coli M9884
[24] = tested on: Klebsiella pneumoniae M9375
[25] = tested on: Staphylococcus haemolyticus M2976
Acinetobacter sp. M9013 = tested on: Acinetobacter sp. M9013
Staphylococcus cohnii = tested on: Staphylococcus cohnii
Acinetobacter sp. M9665 = tested on: Acinetobacter sp. M9665
[26] = tested on: Klebsiella pneumoniae M9491
Acinetobacter sp. M5949 = tested on: Acinetobacter sp. M5949
[27] = tested on: Staphylococcus aureus P33
[28] = tested on: Pseudomonas aeruginosa PACO12
Staphylococcus warneri = tested on: Staphylococcus warneri
[29] = tested on: Enterococcus faecium M2304
[30] = tested on: Klebsiella pneumoniae M11245
[31] = tested on: Staphylococcus hominis M2967
[32] = tested on: Enterococcus faecalis ATCC 29212
[33] = tested on: Staphylococcus epidermidis M2923
[34] = tested on: Staphylococcus saprophyticus M4070
[35] = tested on: Enterococcus faecalis M6983
[36] = tested on: Klebsiella pneumoniae PFAV 3
[37] = tested on: Staphylococcus hominis M2973
Escherichia coli M5306 = tested on: Escherichia coli M5306
Acinetobacter sp. M13523 = tested on: Acinetobacter sp. M13523
[38] = tested on: Enterococcus gallinarum M2723
[39] = tested on: Staphylococcus epidermidis M2921
Escherichia coli M9209 = tested on: Escherichia coli M9209
Escherichia coli M7859 = tested on: Escherichia coli M7859
[40] = tested on: Staphylococcus aureus ATCC 29213
[41] = tested on: Candida albicans ATCC 37092

CC[C@H](C)[C@H](NC(=O)[C@H](Cc1cnc[nH]1)NC(=O)[C@H](CO)NC(=O)CNC(=O)[C@H](CO)NC(=O)CNC(=O)[C@@H](NC(=O)[C@H](CO)NC(=O)[C@H](CCCN=C(N)N)NC(=O)[C@H](CC(C)C)NC(=O)[C@H](CCCCN)NC(=O)[C@H](CCC(N)=O)NC(=O)[C@H](CCCCN)NC(=O)[C@H](CC(C)C)NC(=O)[C@H](CCC(N)=O)NC(=O)[C@@H]1CSSC[C@H](NC(=O)[C@H](CCCCN)NC(=O)CN)C(=O)N[C@@H](CC(N)=O)C(=O)N[C@@H](C(C)C)C(=O)N[C@@H](CC(C)C)C(=O)N1)[C@@H](C)CC)C(=O)NCC(=O)N[C@@H](CO)C(=O)N[C@H](C(=O)N[C@H](C(=O)N[C@@H](CC(C)C)C(=O)N1CCC[C@H]1C(=O)N[C@@H](CCCN=C(N)N)C(=O)NCC(=O)O)C(C)C)C(C)C [GKCNVLCQLKQKLRSIGSGSHIGSVVLPRG]
MIC [1]: 4.54 µM (≈ 14.2 µg/mL)
MIC [2]: 2.27 µM (≈ 7.11 µg/mL)
MIC [3]: 4.54 µM (≈ 14.2 µg/mL)
MIC [4]: 4.54 µM (≈ 14.2 µg/mL)
MIC (Staphylococcus aureus): 2.27 µM (≈ 7.11 µg/mL)
MIC [5]: 2.27 µM (≈ 7.11 µg/mL)
MIC [6]: 4.54 µM (≈ 14.2 µg/mL)
MIC (Escherichia coli 1342): 9.08 µM (≈ 28.5 µg/mL)
MIC [7]: 18.2 µM (≈ 57 µg/mL)
MIC (Escherichia coli 1334): 4.54 µM (≈ 14.2 µg/mL)
MIC (Candida glabrata 0902): 4.54 µM (≈ 14.2 µg/mL)
MIC [8]: 9.08 µM (≈ 28.5 µg/mL)
MIC [9]: 9.08 µM (≈ 28.5 µg/mL)
MIC [10]: 1.13 µM (≈ 3.54 µg/mL)
MIC [11]: 4.54 µM (≈ 14.2 µg/mL)

CSCC[C@H](NC(=O)[C@H](CO)NC(=O)[C@H](CC(C)C)NC(=O)[C@H](Cc1cnc[nH]1)NC(=O)[C@H](CO)NC(=O)[C@@H](N)CCC(N)=O)C(=O)N[C@H]1CSSC[C@@H](C(=O)N[C@@H](CCCN=C(N)N)C(=O)N[C@@H](Cc2ccccc2)C(=O)O)NC(=O)[C@@H]2CSSC[C@@H]3NC(=O)[C@@H]4CSSC[C@H](NC(=O)[C@H](C(C)C)NC(=O)[C@H](CO)NC1=O)C(=O)N[C@@H](CSSC[C@H](NC(=O)CNC(=O)[C@H](CCCCN)NC(=O)[C@H](Cc1ccc(O)cc1)NC(=O)[C@H](CC(N)=O)NC(=O)[C@H](CCCCN)NC3=O)C(=O)NCC(=O)N[C@@H](Cc1ccccc1)C(=O)N2)C(=O)N[C@@H](CC(N)=O)C(=O)N4 [QSHLSMCSVCCNCCKNYKGCGFCCRF]
MIC [12]: 12 µM (≈ 35 µg/mL)
MIC [13]: ≥ 48 µM
MIC [5]: 24 µM (≈ 70 µg/mL)
MIC [14]: ≥ 48 µM
MIC [15]: 12 µM (≈ 35 µg/mL)
MIC [16]: 12 µM (≈ 35 µg/mL)

CC[C@H](C)[C@H](NC(=O)[C@H](CCCN=C(N)N)NC(=O)[C@H](CCC(N)=O)NC(=O)[C@@H](NC(=O)[C@@H](NC(=O)[C@@H](N)CCCN=C(N)N)[C@@H](C)CC)C(C)C)C(=O)N[C@@H](CCCCN)C(=O)N[C@@H](CCCCN)C(=O)N[C@@H](Cc1c[nH]c2ccccc12)C(=O)N[C@@H](CC(C)C)C(=O)N[C@@H](CC(C)C)C(=O)N[C@@H](CCCCN)C(=O)N[C@@H](Cc1c[nH]c2ccccc12)C(=O)N[C@@H](CCCCN)C(=O)N[C@@H](CCCCN)C(=O)N[C@@H](CC(C)C)C(=O)NCC(=O)N[C@@H](Cc1ccc(O)cc1)C(N)=O [RIVQRIKKWLLKWKKLGY]
MIC [17]: ≥ 54.3 µM
MIC [18]: ≥ 109 µM
MIC [19]: ≥ 109 µM
MIC [1]: 27.2 µM (≈ 64 µg/mL)
MIC [20]: 13.6 µM (≈ 32 µg/mL)
MIC [21]: 6.79 µM (≈ 16 µg/mL)
MIC [22]: 13.6 µM (≈ 32 µg/mL)
MIC [23]: 13.6 µM (≈ 32 µg/mL)
MIC (Escherichia coli M9884): 13.6 µM (≈ 32 µg/mL)
MIC [24]: 6.79 µM (≈ 16 µg/mL)
MIC [5]: 13.6 µM (≈ 32 µg/mL)
MIC [25]: 3.39 µM (≈ 8 µg/mL)
MIC (Acinetobacter sp. M9013): 13.6 µM (≈ 32 µg/mL)
MIC (Staphylococcus cohnii): 3.39 µM (≈ 8 µg/mL)
MIC (Acinetobacter sp. M9665): ≥ 54.3 µM
MIC [26]: 27.2 µM (≈ 64 µg/mL)
MIC (Acinetobacter sp. M5949): ≥ 109 µM
MIC [27]: 27.2 µM (≈ 64 µg/mL)
MIC [28]: 27.2 µM (≈ 64 µg/mL)
MIC (Staphylococcus warneri): 3.39 µM (≈ 8 µg/mL)
MIC [29]: 3.39 µM (≈ 8 µg/mL)
MIC [30]: 3.39 µM (≈ 8 µg/mL)
MIC [31]: 3.39 µM (≈ 8 µg/mL)
MIC [32]: 54.3 µM (≈ 128 µg/mL)
MIC [33]: 6.79 µM (≈ 16 µg/mL)
MIC [34]: 3.39 µM (≈ 8 µg/mL)
MIC [35]: ≥ 54.3 µM
MIC [36]: ≥ 54.3 µM
MIC [37]: 1.7 µM (≈ 4 µg/mL)
MIC (Escherichia coli M5306): 27.2 µM (≈ 64 µg/mL)
MIC (Acinetobacter sp. M13523): 27.2 µM (≈ 64 µg/mL)
MIC [38]: 6.79 µM (≈ 16 µg/mL)
MIC [39]: 3.39 µM (≈ 8 µg/mL)
MIC (Escherichia coli M9209): ≥ 54.3 µM
MIC (Escherichia coli M7859): 6.79 µM (≈ 16 µg/mL)

CC[C@H](C)[C@H](NC(=O)[C@H](CCCN=C(N)N)NC(=O)[C@@H](N)CCCN=C(N)N)C(=O)N[C@@H](CCCN=C(N)N)C(=O)N1CCC[C@H]1C(=O)N[C@@H](CCCN=C(N)N)C(=O)N1CCC[C@H]1C(=O)O [RRIRPRP]
MIC [40]: > 500 µM
MIC [5]: > 500 µM
MIC [41]: ≥ 500 µM
